This passage reports IC50 results from patent US20230406885A1, “CYCLIC PEPTIDES FOR TRAPPING INTERLEUKIN-1 BETA” (MERCK SHARP & DOHME LLC, priority 2022, published 2023).

In the experiment the target is T1, Recombinant human IL-1β (Homo sapiens, UniProt P01584).
T1 construct: purchased BioLegend 579404
Put plainly: IL-6 assay in MRC5 cells: inhibition of IL-1β induced IL-6 secretion (AlphaLISA). The class given is cell-based. To be noted: inhibition of IL-1β induced IL-6 secretion in MRC5 cells, read-out: MRC5 IC50. The gist of the method: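 IL-1β at 2×EC80 in seeding medium (EMEM, 0.025% BSA) preincubated 1 h at ambient temperature with compound, then 3000 MRC5 cells/well added and incubated overnight at 37 °C, 5% CO2. IL-6 in conditioned medium quantified by AlphaLISA; IC50 from 4-parameter logistic fit.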
(In general: Bead proximity is the source of the signal in Alpha formats.)

One may read the IC50 as the concentration needed to halve the response being measured.

Read-outs that look alike come from different tables or passages of the source. Where a SMILES comes first, the peptide text is derived from it. [ ]: non-standard residue; d: D form. The star is where a group is joined. Bip(4'-COOH) = N[C@@H](Cc1ccc(-c2ccc(C(=O)O)cc2)cc1)C(=O)O; 1Nal(3S-Me) = C[C@@H](c1cccc2ccccc12)[C@H](N)C(=O)O; Phe(4-COOH) = N[C@@H](Cc1ccc(C(=O)O)cc1)C(=O)O; Pro(4R-NH2) = N[C@H]1CN[C@H](C(=O)O)C1; AEF = NCCOc1ccc(C[C@H](N)C(=O)O)cc1; Ethyl(2-morpholino) = C1CN(CC*)CCO1; hTyr = N[C@@H](CCc1ccc(O)cc1)C(=O)O; dNMeA = CN[C@H](C)C(=O)O; Dab = NCC[C@H](N)C(=O)O; Dap = NC[C@H](N)C(=O)O; Aib = CC(C)(N)C(=O)O

T1 sequence (P01584 117-269): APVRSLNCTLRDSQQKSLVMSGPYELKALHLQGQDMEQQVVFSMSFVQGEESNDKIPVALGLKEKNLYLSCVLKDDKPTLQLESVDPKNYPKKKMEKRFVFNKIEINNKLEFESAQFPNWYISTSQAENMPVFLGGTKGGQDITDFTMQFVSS

On to `CC(=O)NCCOc1ccc(C[C@@H]2NC(=O)[C@H](CCc3ccc(O)cc3)NC(=O)[C@@H](C)NC(=O)[C@H](CCN)NC(=O)[C@H](Cc3c[nH]c4ccccc34)NC(=O)[C@H](Cc3ccc(-c4ccc(C(=O)O)cc4)cc3)NC(=O)CNC(=O)[C@@H](C)N(C)C(=O)[C@H](CC(=O)O)NC(=O)[C@H]([C@@H](C)c3cccc4ccccc34)NC(=O)[C@@H]3C[C@@H](N)CN3C(=O)CNC(=O)[C@H](Cc3ccc(C(=O)O)cc3)NC(=O)[C@H](Cc3c[nH]c4ccccc34)NC2=O)cc1` [Example 116] (cyclo([AEF](Ac)W[Phe(4-COOH)]G[Pro(4R-NH2)][1Nal(3S-Me)]D[dNMeA]G[Bip(4'-COOH)]W[Dab][dA][hTyr])), for which the IC50 (IL-1β pre-incubated 1 hour with compound) was 0.492 nM.

Consider `CC(=O)NCCOc1ccc(C[C@@H]2NC(=O)[C@H](CCc3ccc(O)cc3)NC(=O)C(C)(C)NC(=O)[C@H](CN)NC(=O)[C@H](Cc3c[nH]c4ccccc34)NC(=O)[C@H](Cc3ccc(-c4ccc(C(=O)O)cc4)cc3)NC(=O)CNC(=O)[C@@H](C)N(C)C(=O)[C@H](CC(=O)O)NC(=O)[C@H]([C@@H](C)c3cccc4ccccc34)NC(=O)[C@@H]3C[C@@H](N)CN3C(=O)CNC(=O)[C@H](Cc3ccc(C(=O)O)cc3)NC(=O)[C@H](Cc3c[nH]c4ccccc34)NC2=O)cc1` [Example 117] (cyclo([AEF](Ac)W[Phe(4-COOH)]G[Pro(4R-NH2)][1Nal(3S-Me)]D[dNMeA]G[Bip(4'-COOH)]W[Dap][Aib][hTyr])), for which the IC50 was determined as 0.16 nM.

Consider `CC(=O)NCCOc1ccc(C[C@@H]2NC(=O)[C@H](C)NC(=O)[C@@H](C)NC(=O)[C@H](CN)NC(=O)[C@H](Cc3c[nH]c4ccccc34)NC(=O)[C@H](Cc3ccc(-c4ccc(C(=O)O)cc4)cc3)NC(=O)CNC(=O)[C@@H](C)N(C)C(=O)[C@H](CC(=O)O)NC(=O)[C@H]([C@@H](C)c3cccc4ccccc34)NC(=O)[C@@H]3C[C@@H](N)CN3C(=O)CNC(=O)[C@H](Cc3ccc(C(=O)O)cc3)NC(=O)[C@H](Cc3c[nH]c4ccccc34)NC2=O)cc1` [Example 118] (cyclo([AEF](Ac)W[Phe(4-COOH)]G[Pro(4R-NH2)][1Nal(3S-Me)]D[dNMeA]G[Bip(4'-COOH)]W[Dap][dA]A)), for which the IC50 came out at 0.973 nM.

In the case of `CC(=O)NCCOc1ccc(C[C@@H]2NC(=O)[C@H](CCc3ccc(O)cc3)NC(=O)[C@@H](C)NC(=O)[C@H](CN)NC(=O)[C@H](Cc3c[nH]c4ccccc34)NC(=O)[C@H](Cc3ccc(-c4ccc(C(=O)O)cc4)cc3)NC(=O)CNC(=O)[C@@H](C)N(C)C(=O)[C@H](CC(=O)O)NC(=O)[C@H]([C@@H](C)c3cccc4ccccc34)NC(=O)[C@@H]3C[C@@H](N)CN3C(=O)CNC(=O)[C@H](Cc3ccc(C(=O)O)cc3)NC(=O)[C@H](Cc3c[nH]c4ccccc34)NC2=O)cc1` [Example 119] (cyclo([AEF](Ac)W[Phe(4-COOH)]G[Pro(4R-NH2)][1Nal(3S-Me)]D[dNMeA]G[Bip(4'-COOH)]W[Dap][dA][hTyr])), the IC50 was determined as 0.0602 nM.

On to `CC(=O)NCCOc1ccc(C[C@@H]2NC(=O)[C@H](Cc3ccc(OCCN4CCOCC4)cc3)NC(=O)[C@@H](C)NC(=O)[C@H](CN)NC(=O)[C@H](Cc3c[nH]c4ccccc34)NC(=O)[C@H](Cc3ccc(-c4ccc(C(=O)O)cc4)cc3)NC(=O)CNC(=O)[C@@H](C)N(C)C(=O)[C@H](CC(=O)O)NC(=O)[C@H]([C@@H](C)c3cccc4ccccc34)NC(=O)[C@@H]3C[C@@H](N)CN3C(=O)CNC(=O)[C@H](Cc3ccc(C(=O)O)cc3)NC(=O)[C@H](Cc3c[nH]c4ccccc34)NC2=O)cc1` [Example 120] (cyclo([AEF](Ac)W[Phe(4-COOH)]G[Pro(4R-NH2)][1Nal(3S-Me)]D[dNMeA]G[Bip(4'-COOH)]W[Dap][dA]Y(Ethyl(2-morpholino)))), for which the IC50 was 0.86 nM.
